Experimental data from US20100298141A1, “SUBSTITUTED PYRIDINE N-OXIDE HERBICIDES” (E. I. DU PONT DE NEMOURS AND COMPANY, priority 2007, published 2010).

Columns and labels:
corn = assay: Test A pre-/postemergence greenhouse test; type: in vivo, Zea mays; details: for Plant response rating, Corn: 0 to 100 scale where 0 is no effect and 100 is complete control; for Corn plant response rating: 0 to 100 scale
Method in brief: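 Each test compound, dissolved in a non-phytotoxic solvent mixture with surfactant, was sprayed directly onto seeded soil (loam/sand blend) and, at the same moment, onto seedlings carrying one to two leaves. Around ten greenhouse days later, plants were rated visually for injury relative to untreated controls.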

common mallow = assay: Test F preemergence test; type: in vivo, Malva sylvestris; details: scale 0 to 100
Method in brief: (§1)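 Test chemicals in a non-phytotoxic solvent mixture containing a surfactant were applied preemergence to sown seeds or postemergence to sugarcane plants. Treated plants and controls were held in a greenhouse for 14 to 21 days, then visually evaluated against controls.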

broadleaf signalgrass = assay: Test F preemergence test; type: in vivo, Brachiaria platyphylla; details: scale 0 to 100
Method in brief: as §1

green foxtail = assay: Test C pre-/postemergence test; type: in vivo, Setaria viridis
Method in brief: (§2)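 Test chemicals were formulated with surfactant in a non-phytotoxic solvent and sprayed both on freshly planted seeds (preemergence) and on 1- to 4-leaf plants of 2–18 cm (postemergence). Flooded-paddy pots received compound directly into 3 cm of standing water, maintained for the test.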

kochia = assay: Test F preemergence test; type: in vivo, Kochia scoparia; details: scale 0 to 100
Method in brief: as §1

Virginia dayflower = assay: Test F preemergence test; type: in vivo, Commelina virginica; details: 16 g ai/ha, preemergence; scale 0 to 100
Method in brief: as §1

common ragweed = assay: Test C pre-/postemergence test; type: in vivo, Ambrosia elation
Method in brief: as §2

blackgrass = assay: Test C pre-/postemergence test; type: in vivo, Alopecurus myosuroides
Method in brief: as §2

quackgrass = assay: Test F preemergence test; type: in vivo, Elytrigia repens; details: scale 0 to 100
Method in brief: as §1

Surinam grass = assay: Test F preemergence test; type: in vivo, Brachiaria decumbens; details: scale 0 to 100
Method in brief: as §1

dallisgrass = assay: Test F preemergence test; type: in vivo, Paspalum dilatatum; details: scale 0 to 100
Method in brief: as §1

mustard = assay: Test F preemergence test; type: in vivo, Brassica nigra; details: scale 0 to 100
Method in brief: as §1

bermudagrass = assay: Test F preemergence test; type: in vivo, Cynodon dactylon; details: scale 0 to 100
Method in brief: as §1

prickly sida = assay: Test F preemergence test; type: in vivo, Sida spinosa; details: scale 0 to 100
Method in brief: as §1

[1] = 62 g ai/ha, Preemergence, scale 0 to 100
[2] = 125 g ai/ha, preemergence, scale 0 (no effect) to 100 (complete control)
[3] = Postemergence, 62 g ai/ha, scale 0 to 100, 0 no effect, 100 complete control
[4] = Postemergence, 125 g ai/ha, scale 0 to 100, 0 no effect, 100 complete control
[5] = Postemergence, 250 g ai/ha, scale 0 to 100, 0 no effect, 100 complete control
[6] = Preemergence, 31 g ai/ha, scale 0 to 100 (0 no effect, 100 complete control)
[7] = preemergence, 250 g ai/ha, scale 0 (no effect) to 100 (complete control)

Cn1nc(C(F)(F)F)c(C[S+]([O-])c2ccc(Cl)c[n+]2[O-])c1OCC(F)(F)F (racemic) [Compound 62]
95: Signalgrass plant response rating (broadleaf signalgrass; 125 g ai/ha, preemergence) | Plant response rating, Surinam Grass (Surinam grass; Preemergence, 31 g ai/ha) | Prickly Sida plant response rating (prickly sida; 125 g ai/ha, preemergence)
70: Corn plant response rating (corn; Postemergence, 500 g ai/ha, 0 is no effect, 100 is complete control)
98: Mallow plant response rating (common mallow; 62 g ai/ha, Preemergence) | Blackgrass plant response rating (blackgrass; [1]) | Quackgrass plant response rating (quackgrass; 125 g ai/ha, preemergence) | Dallisgrass plant response rating (dallisgrass; 62 g ai/ha, Preemergence) | Dallisgrass plant response rating (dallisgrass; 125 g ai/ha, preemergence) | Black Mustard plant response rating (mustard; 125 g ai/ha, preemergence)
15: Kochia plant response rating (kochia; 62 g ai/ha, Preemergence) | Plant response rating, Prickly Sida (prickly sida; 16 g ai/ha, preemergence)
40: Plant response rating, Signalgrass (broadleaf signalgrass; 16 g ai/ha, preemergence) | Plant response rating, Signalgrass (broadleaf signalgrass; Preemergence, 31 g ai/ha) | Plant response rating, Foxtail, Green (green foxtail; [4]) | Plant response rating (0 to 100), Blackgrass (blackgrass; Postemergence, 31 g ai/ha) | Plant response rating, Blackgrass (blackgrass; [3]) | Plant response rating, Quackgrass (quackgrass; 16 g ai/ha, preemergence)
75: Plant response rating, Signalgrass (broadleaf signalgrass; Preemergence, 62 g ai/ha) | Quackgrass plant response rating (quackgrass; 62 g ai/ha, Preemergence) | Plant response rating, Quackgrass (quackgrass; Preemergence, 31 g ai/ha) | Bermudagrass plant response rating (bermudagrass; 62 g ai/ha, Preemergence) | Prickly Sida plant response rating (prickly sida; 62 g ai/ha, Preemergence)
80: Corn plant response rating (corn; Preemergence, 125 g ai/ha, 0 no effect, 100 complete control) | Plant response rating, Mallow (common mallow; Preemergence, 31 g ai/ha) | Plant response rating, Foxtail, Green (green foxtail; [5]) | Plant response rating, Foxtail, Green (green foxtail; [6]) | Plant response rating, Blackgrass (blackgrass; [5])
0: Plant response rating, Mallow (common mallow; 16 g ai/ha, preemergence) | Plant response rating (0 to 100), Foxtail, Green (green foxtail; Postemergence, 31 g ai/ha) | Plant response rating, Kochia (kochia; 16 g ai/ha, preemergence) | Plant response rating, Kochia (kochia; Preemergence, 31 g ai/ha) | Plant response rating, Dayflower (Virginia dayflower) | Plant response rating (0 to 100), Ragweed (common ragweed; Postemergence, 31 g ai/ha) | Plant response rating (0 to 100), Ragweed (common ragweed; Postemergence, 62 g ai/ha) | Plant response rating, Ragweed (common ragweed; [4]) | Plant response rating, Ragweed (common ragweed; [5]) | Plant response rating, Dallisgrass (dallisgrass; 16 g ai/ha, preemergence) | Plant response rating, Black Mustard (mustard; Preemergence, 31 g ai/ha)
50: Plant response rating, Corn (corn; Postemergence, 125 g ai/ha)
100: Mallow plant response rating (common mallow; 125 g ai/ha, preemergence) | Foxtail, Green plant response rating (green foxtail; [1]) | Foxtail, Green plant response rating (green foxtail; [2]) | Foxtail, Green plant response rating (green foxtail; [7]) | Kochia plant response rating (kochia; 125 g ai/ha, preemergence) | Ragweed plant response rating (common ragweed; [1]) | Ragweed plant response rating (common ragweed; [2]) | Plant response rating, Ragweed (common ragweed; [6]) | Ragweed plant response rating (common ragweed; [7]) | Blackgrass plant response rating (blackgrass; [2]) | Blackgrass plant response rating (blackgrass; [7]) | Surinam Grass plant response rating (Surinam grass; 125 g ai/ha, preemergence) | Plant response rating, Surinam Grass (Surinam grass; Preemergence, 62 g ai/ha) | Bermudagrass plant response rating (bermudagrass; 125 g ai/ha, preemergence)
65: Plant response rating, Prickly Sida (prickly sida; Preemergence, 31 g ai/ha)
20: Plant response rating, Foxtail, Green (green foxtail; [3]) | Plant response rating, Black Mustard (mustard; 16 g ai/ha, preemergence) | Plant response rating, Bermudagrass (bermudagrass; 16 g ai/ha, preemergence) | Plant response rating, Bermudagrass (bermudagrass; Preemergence, 31 g ai/ha)
60: Plant response rating, Blackgrass (blackgrass; [4]) | Plant response rating, Surinam Grass (Surinam grass; 16 g ai/ha, preemergence) | Plant response rating, Dallisgrass (dallisgrass; Preemergence, 31 g ai/ha)
90: Plant response rating, Corn (corn; Preemergence, 500 g ai/ha) | Plant response rating, Blackgrass (blackgrass; [6]) | Black Mustard plant response rating (mustard; 62 g ai/ha, Preemergence)
